Source: patent US5677292A, “Derivatives of estra 1,3,5(10)triene-17-one,3-amino compounds and their use” (Duquesne University of the Holy Ghost, priority 1996, dated 1997)
“Also recorded” adds a separate entry of the source.

Tests used:
[1] = test system: uterine weight of ovariectomized rats; assay: Ovariectomized rat uterine weight gain assay: estrogenicity; settings: for Estrogenicity: increase in uterine weight of ovariectomized rats compared with control / Uterine weight compared with other groups (control and E1 -NH2): 25 μg/day, i.p., seven days; for Estrogenicity: increase in uterine weight of ovariectomized rats compared with control: n=5; for Uterine weight compared with other groups (control and E1 -NH2): Student-Newman-Keuls test
Experimental: Estrogenicity and antiestrogenicity were assessed using an ovariectomized rat uterine weight gain assay. […] Ovariectomized rats were maintained two weeks prior to treatment to allow their uteri to regress to basal size. Treatments were given by intraperitoneal injection in a 1% gelatin, 0.9% NaCl solution at a volume of 0.5 ml. Steroids were dissolved in ethanol to 1 mg/ml then further diluted into the injection solution to the desired concentration. All treatments were continued for seven days. At the termination of the experiments, animals were sacrificed by cervical dislocation under ether anesthesia. Body weight was taken, then uteri were excised, stripped of fat, and weighed to the nearest 0.1 mg.
(§1) Steroids were administered at 25 μg/day. For determination of antiestrogenicity, three treatment groups were established: vehicle control, estrone, and estrone E1 NH2.
A rat uterine weight gain assay was used to determine if E1 -NH2 had estrogenic or anti-estrogenic activity. […] Data are means ±SEM, n=5 for all groups. Control animals received vehicle only (0.9% NaCl, 1% gelatin, 500 μl,i.p. injection).

[2] = test system: estrone-induced uterine weight gain in ovariectomized rats; assay: Ovariectomized rat uterine weight gain assay: anti-estrogenicity (block of estrone-induced uterine weight gain); assay type: in vivo
Experimental: Estrogenicity and antiestrogenicity were assessed using an ovariectomized rat uterine weight gain assay. […] Ovariectomized rats were maintained two weeks prior to treatment to allow their uteri to regress to basal size. Treatments were given by intraperitoneal injection in a 1% gelatin, 0.9% NaCl solution at a volume of 0.5 ml. Steroids were dissolved in ethanol to 1 mg/ml then further diluted into the injection solution to the desired concentration. All treatments were continued for seven days. At the termination of the experiments, animals were sacrificed by cervical dislocation under ether anesthesia. Body weight was taken, then uteri were excised, stripped of fat, and weighed to the nearest 0.1 mg. In vivo, estradiol and estrone can induce uterine weight gain in female ovariectomized rats.
as §1
Antiestrogenicity was assessed as the ability of the compound to block estrone-induced uterine weight gain in ovariectomized rats. […] Control animals received vehicle only (0.9% NaCl, 1% gelatin, 500 μl. i.p. injection).

[3] = target: T1, rat uterine estrogen receptor (Rattus norvegicus, UniProt P06211); assay: Estrogen receptor binding, displacement of 3H-estradiol in rat uterine cytosol
T1 sequence (P06211 1-600): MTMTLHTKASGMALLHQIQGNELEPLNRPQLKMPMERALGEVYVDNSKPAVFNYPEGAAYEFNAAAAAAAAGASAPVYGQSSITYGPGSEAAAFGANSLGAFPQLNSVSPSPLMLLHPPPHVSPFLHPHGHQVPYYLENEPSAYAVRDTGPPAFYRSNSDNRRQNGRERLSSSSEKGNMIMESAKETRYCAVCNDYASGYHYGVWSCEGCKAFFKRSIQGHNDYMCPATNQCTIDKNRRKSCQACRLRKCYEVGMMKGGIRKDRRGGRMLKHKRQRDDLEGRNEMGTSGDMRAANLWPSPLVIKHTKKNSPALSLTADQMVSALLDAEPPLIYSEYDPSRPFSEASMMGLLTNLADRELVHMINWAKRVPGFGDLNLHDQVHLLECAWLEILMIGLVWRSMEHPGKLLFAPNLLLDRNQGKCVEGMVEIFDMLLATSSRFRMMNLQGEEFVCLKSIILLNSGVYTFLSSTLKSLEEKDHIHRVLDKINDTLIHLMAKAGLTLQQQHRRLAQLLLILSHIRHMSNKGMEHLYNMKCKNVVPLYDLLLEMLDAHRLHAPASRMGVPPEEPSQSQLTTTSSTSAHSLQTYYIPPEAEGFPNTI
Experimental: Specific binding was calculated as total binding minus nonspecific binding.

[4] = test system: nitrosomethyl urea-induced tumor cells in castrated rats; settings: cited from earlier work

C[C@]12CC[C@@H]3c4ccc(N)cc4CC[C@H]3[C@@H]1CCC2=O [E1 -NH2, estra-1,3,5(10)-triene-17-one, 3-amine]
Estrogenicity: increase in uterine weight of ovariectomized rats compared with control [1]: did not cause a significant increase in uterine weight | Estrogenicity (conclusion) ([1]; FIGS. 4 and 5): neither estrogenic nor anti-estrogenic | Anti-estrogenicity: block of estrone-induced uterine growth ([2]; E1 -NH2 100 μg/day with estrone 2 μg/day, i.p., seven days, n=5): did not block estrone-induced uterine growth | Anti-estrogenicity (conclusion) ([2]; FIGS. 4 and 5): neither estrogenic nor anti-estrogenic | Competition for / interaction with estrogen receptor ([3]; rat uterine cytosol, 0.01, 0.1 and 1 μM competitor): did not compete for estrogen receptor at the same level as estrone; also recorded: does not interact to any great extent with an estrogen receptor | inhibition at 1 µM ([3]; read-out: Displacement of specific 3H-estradiol binding): 60%

C[C@]12CC[C@@H]3c4ccc(O)cc4CC[C@H]3[C@@H]1CC[C@@H]2O [estradiol, estradiol-17β]
Estrogenicity: increase in uterine weight of ovariectomized rats compared with control [1]: significantly increased uterine weight above control levels | Uterine weight compared with other groups (control and E1 -NH2) [1]: significantly (p≤0.05) higher than other groups

C[C@]12CC[C@@H]3c4ccc(O)cc4CC[C@H]3[C@@H]1CCC2=O [estrone]
Estrogenicity: increase in uterine weight of ovariectomized rats compared with control [1]: significantly increased uterine weight above control levels | Uterine weight compared with other groups (control and E1 -NH2) [1]: significantly (p≤0.05) higher than other groups

estrone sulfate
Stimulation of tumor cell growth [4]: stimulate growth of nitrosomethyl urea-induced tumor cells in castrated rats
